Reference: patent US20200239530A1, “COMPOUNDS AND METHODS OF MODULATING PROTEIN DEGRADATION” (Vividion Therapeutics, Inc., priority 2017, published 2020)
Where two headings read alike, the source gives them in different places. Each block holds one compound with its values, some of them ahead of it.

Key:
Test in all cases: Cysteine liganding, probe competition
Format in all cases: binding
UniProt O15524 = molecular target: T1, UniProt O15524 (Homo sapiens, UniProt O15524); conditions: for inhibition at 500 µM: read-out: percent_inhibition
T1 construct: 200 μL of lysate containing 5 mg/ml proteome was treated with 2 μL of 100× compound stock; endogenous in cells
T1 sequence (O15524 1-211): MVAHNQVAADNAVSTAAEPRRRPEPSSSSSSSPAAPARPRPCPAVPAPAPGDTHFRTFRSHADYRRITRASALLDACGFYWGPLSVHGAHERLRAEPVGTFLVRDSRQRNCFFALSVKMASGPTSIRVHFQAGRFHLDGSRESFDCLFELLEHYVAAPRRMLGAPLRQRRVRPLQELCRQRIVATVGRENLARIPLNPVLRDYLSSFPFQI
Excerpt: (§1) The following 96-well sample prep protocol was used for sample preparation.

UniProt Q3KNV8 = molecular target: T2, UniProt Q3KNV8 (Homo sapiens, UniProt Q3KNV8)
T2 construct: Cells were resuspended in cold PBS on ice and sonicated with a probe sonicator to achieve lysis; endogenous in cells
T2 sequence (Q3KNV8 1-242): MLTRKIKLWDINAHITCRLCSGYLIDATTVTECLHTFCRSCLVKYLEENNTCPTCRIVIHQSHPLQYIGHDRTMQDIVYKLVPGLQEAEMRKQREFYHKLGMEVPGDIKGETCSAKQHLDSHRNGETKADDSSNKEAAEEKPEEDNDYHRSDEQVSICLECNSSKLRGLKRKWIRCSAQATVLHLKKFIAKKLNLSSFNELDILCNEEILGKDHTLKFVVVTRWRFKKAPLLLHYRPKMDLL
Excerpt: as §1

UniProt Q6AZZ1 = molecular target: T3, UniProt Q6AZZ1 (Homo sapiens, UniProt Q6AZZ1)
T3 construct: 200 μL of lysate containing 5 mg/ml proteome was treated with 2 μL of 100× compound stock; endogenous in cells
T3 sequence (Q6AZZ1 1-485): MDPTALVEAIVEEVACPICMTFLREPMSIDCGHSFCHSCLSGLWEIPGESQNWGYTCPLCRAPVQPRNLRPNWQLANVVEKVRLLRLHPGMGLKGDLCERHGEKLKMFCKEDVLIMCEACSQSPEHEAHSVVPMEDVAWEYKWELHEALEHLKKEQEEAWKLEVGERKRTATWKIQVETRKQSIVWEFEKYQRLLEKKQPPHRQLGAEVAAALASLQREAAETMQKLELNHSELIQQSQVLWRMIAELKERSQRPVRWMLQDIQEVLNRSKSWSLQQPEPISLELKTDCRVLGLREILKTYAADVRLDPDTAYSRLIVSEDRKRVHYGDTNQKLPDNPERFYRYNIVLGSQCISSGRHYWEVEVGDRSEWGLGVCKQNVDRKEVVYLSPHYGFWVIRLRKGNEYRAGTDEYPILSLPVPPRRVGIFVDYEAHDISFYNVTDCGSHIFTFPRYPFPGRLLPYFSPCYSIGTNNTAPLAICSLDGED
Excerpt: as §1

UniProt Q6ZTA4 = molecular target: T4, UniProt Q6ZTA4 (Homo sapiens, UniProt Q6ZTA4)
T4 construct: 200 μL of lysate containing 5 mg/ml proteome was treated with 2 μL of 100× compound stock; endogenous in cells
T4 sequence (Q6ZTA4 whole entry, change not shown): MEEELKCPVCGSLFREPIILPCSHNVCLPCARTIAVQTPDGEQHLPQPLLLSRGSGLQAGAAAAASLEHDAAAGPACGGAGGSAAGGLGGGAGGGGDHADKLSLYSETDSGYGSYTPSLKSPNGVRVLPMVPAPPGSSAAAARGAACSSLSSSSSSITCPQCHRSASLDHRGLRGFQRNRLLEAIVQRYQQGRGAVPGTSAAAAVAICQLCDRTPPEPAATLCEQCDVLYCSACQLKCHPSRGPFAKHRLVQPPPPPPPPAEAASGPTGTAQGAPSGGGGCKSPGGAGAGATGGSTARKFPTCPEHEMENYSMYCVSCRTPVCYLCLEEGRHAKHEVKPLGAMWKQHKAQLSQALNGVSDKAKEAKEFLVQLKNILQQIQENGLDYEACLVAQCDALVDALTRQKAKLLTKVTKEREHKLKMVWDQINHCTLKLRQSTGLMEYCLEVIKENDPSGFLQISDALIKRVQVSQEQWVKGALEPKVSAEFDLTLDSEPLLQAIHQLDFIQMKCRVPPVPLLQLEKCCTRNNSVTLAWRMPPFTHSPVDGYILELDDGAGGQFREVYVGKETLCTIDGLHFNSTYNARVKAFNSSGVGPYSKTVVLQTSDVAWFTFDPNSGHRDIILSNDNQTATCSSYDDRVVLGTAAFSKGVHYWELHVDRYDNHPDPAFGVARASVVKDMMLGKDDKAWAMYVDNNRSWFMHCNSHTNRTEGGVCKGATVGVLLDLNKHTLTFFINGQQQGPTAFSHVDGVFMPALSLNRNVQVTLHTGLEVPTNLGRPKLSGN
Excerpt: as §1

UniProt Q96G25 = molecular target: T5, UniProt Q96G25 (Homo sapiens, UniProt Q96G25)
T5 construct: Cells were resuspended in cold PBS on ice and sonicated with a probe sonicator to achieve lysis; endogenous in cells
T5 sequence (Q96G25 1-268): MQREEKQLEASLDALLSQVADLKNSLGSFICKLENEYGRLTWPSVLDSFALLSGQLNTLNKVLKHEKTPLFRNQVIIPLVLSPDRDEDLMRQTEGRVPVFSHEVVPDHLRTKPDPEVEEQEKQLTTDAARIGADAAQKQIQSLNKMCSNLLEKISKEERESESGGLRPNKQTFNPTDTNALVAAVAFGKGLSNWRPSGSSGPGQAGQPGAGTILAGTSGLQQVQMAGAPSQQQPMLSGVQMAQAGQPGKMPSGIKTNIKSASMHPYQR
Excerpt: as §1

UniProt Q9BY78 = molecular target: T6, UniProt Q9BY78 (Homo sapiens, UniProt Q9BY78); conditions: for inhibition at 500 µM: read-out: percent_inhibition
T6 construct: 200 μL of lysate containing 5 mg/ml proteome was treated with 2 μL of 100× compound stock; endogenous in cells
T6 sequence (Q9BY78 1-433): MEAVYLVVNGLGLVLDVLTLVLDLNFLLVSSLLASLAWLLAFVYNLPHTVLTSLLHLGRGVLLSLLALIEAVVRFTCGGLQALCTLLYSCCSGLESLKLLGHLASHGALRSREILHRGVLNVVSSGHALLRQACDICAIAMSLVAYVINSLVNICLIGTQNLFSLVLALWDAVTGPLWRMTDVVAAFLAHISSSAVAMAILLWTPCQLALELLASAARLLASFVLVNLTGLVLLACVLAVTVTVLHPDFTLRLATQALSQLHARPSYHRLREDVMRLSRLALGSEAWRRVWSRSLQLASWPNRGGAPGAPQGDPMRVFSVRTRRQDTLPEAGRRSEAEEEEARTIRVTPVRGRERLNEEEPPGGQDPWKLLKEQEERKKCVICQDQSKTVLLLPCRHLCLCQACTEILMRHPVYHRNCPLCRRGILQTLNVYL
Excerpt: as §1

UniProt Q9BZY9 = molecular target: T7, UniProt Q9BZY9 (Homo sapiens, UniProt Q9BZY9)
T7 construct: 200 μL of lysate containing 5 mg/ml proteome was treated with 2 μL of 100× compound stock; endogenous in cells
T7 sequence (Q9BZY9 1-425): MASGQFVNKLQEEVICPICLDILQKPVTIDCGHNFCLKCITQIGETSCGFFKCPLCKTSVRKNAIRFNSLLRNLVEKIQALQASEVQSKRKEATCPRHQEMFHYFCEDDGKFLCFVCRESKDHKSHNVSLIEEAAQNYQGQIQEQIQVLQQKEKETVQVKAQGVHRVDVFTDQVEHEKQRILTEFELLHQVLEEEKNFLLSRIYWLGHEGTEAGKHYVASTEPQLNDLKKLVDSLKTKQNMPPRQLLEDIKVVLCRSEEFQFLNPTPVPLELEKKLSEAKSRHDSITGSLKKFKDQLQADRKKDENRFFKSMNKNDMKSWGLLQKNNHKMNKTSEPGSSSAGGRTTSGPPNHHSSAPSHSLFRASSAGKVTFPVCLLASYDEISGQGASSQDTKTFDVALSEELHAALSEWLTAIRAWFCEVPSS
Excerpt: as §1

UniProt Q9C035 = molecular target: T8, UniProt Q9C035 (Homo sapiens, UniProt Q9C035)
T8 construct: 200 μL of lysate containing 5 mg/ml proteome was treated with 2 μL of 100× compound stock; endogenous in cells
T8 sequence (Q9C035 whole entry, change not shown): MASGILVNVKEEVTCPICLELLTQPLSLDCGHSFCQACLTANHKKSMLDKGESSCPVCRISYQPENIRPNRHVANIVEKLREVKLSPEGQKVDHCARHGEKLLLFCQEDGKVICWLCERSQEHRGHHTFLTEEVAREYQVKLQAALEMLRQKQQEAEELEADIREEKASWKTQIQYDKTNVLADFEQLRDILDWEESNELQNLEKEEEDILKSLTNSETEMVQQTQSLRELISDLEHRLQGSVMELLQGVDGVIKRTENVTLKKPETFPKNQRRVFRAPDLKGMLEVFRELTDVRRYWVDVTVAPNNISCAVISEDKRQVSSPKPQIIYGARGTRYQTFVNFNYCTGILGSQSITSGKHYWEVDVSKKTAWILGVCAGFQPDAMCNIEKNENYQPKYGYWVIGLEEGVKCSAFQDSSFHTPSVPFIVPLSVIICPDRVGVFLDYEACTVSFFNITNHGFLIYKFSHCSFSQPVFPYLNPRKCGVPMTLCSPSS
Excerpt: as §1

[1] = read-out: KB05_500 uM_percent_inhibition
[2] = 100 uM, read-out: percent inhibition
[3] = read-out: KB02_500 uM_percent_inhibition

inhibition at 500 µM (UniProt O15524): 56%
inhibition at 100 µM (UniProt Q3KNV8; 100 uM, read-out: KB05_100 uM_percent_inhibition): 14%
KB05_500 uM_percent_inhibition (UniProt Q3KNV8; 500 uM): 50%
inhibition at 500 µM (UniProt Q3KNV8; 500 uM, read-out: KB05_500 uM_percent_inhibition): 58%
inhibition at 500 µM (UniProt Q6AZZ1; [1]): 36%
inhibition at 500 µM (UniProt Q6ZTA4; [1]): 37%
inhibition at 100 µM (UniProt Q96G25; [2]): 10%
percent inhibition (UniProt Q96G25; 500 uM): 40%
inhibition at 500 µM (UniProt Q96G25; 500 uM, read-out: percent inhibition): 31%
inhibition at 500 µM (UniProt Q9BY78): 30%
inhibition at 500 µM (UniProt Q9BZY9; [1]): 71%
inhibition at 100 µM (UniProt Q9C035; read-out: KB05_100 uM_percent_inhibition): 4%
Compound: C=CC(=O)N(c1ccccc1)c1ccc(Br)cc1 [KB05]

Compound: COc1ccc2c(c1)CCCN2C(=O)CCl [KB02]
inhibition at 500 µM (UniProt O15524): 38%
inhibition at 100 µM (UniProt Q3KNV8; 100 uM, read-out: KB02_100 uM_percent_inhibition): 19%
KB02_500 uM_percent_inhibition (UniProt Q3KNV8; 500 uM): 57%
inhibition at 500 µM (UniProt Q3KNV8; 500 uM, read-out: KB02_500 uM_percent_inhibition): 52%
inhibition at 500 µM (UniProt Q6AZZ1; [3]): 44%
inhibition at 500 µM (UniProt Q6ZTA4; [3]): 44%
percent inhibition (UniProt Q96G25; 100 uM): 31%
inhibition at 100 µM (UniProt Q96G25; [2]): 29%
inhibition at 500 µM (UniProt Q9BY78): 31%
inhibition at 500 µM (UniProt Q9BZY9; [3]): 68%
inhibition at 100 µM (UniProt Q9C035; read-out: KB02_100 uM_percent_inhibition): 13%

Compound: O=C(CCl)Nc1cc(C(F)(F)F)cc(C(F)(F)F)c1 [KBO3]
percent_inhibition (UniProt O15524; 500 uM): 35%
KB03_100 uM_percent_inhibition (UniProt Q3KNV8; 100 uM): 6%
KB03_500 uM_percent_inhibition (UniProt Q6AZZ1; 500 uM): 18%
KB03_500 uM_percent_inhibition (UniProt Q6ZTA4; 500 uM): 6%
percent inhibition (UniProt Q96G25; 100 uM): 8%
percent_inhibition (UniProt Q9BY78; 500 uM): 54%
KB03_500 uM_percent_inhibition (UniProt Q9BZY9; 500 uM): 48%
KB03_100 uM_percent_inhibition (UniProt Q9C035; 100 uM): 18%
